Results: publication PMC9604662, “New Ceramides and Cerebrosides from the Deep-Sea Far Eastern Starfish Ceramaster patagonicus” (Marine Drugs, 2022)

Columns and labels:
[1] = system: human breast cancer cells MDA-MB-231; experiment: Soft agar colony formation assay; type: cell-based; conditions: MDA-MB-231, 336 h, 14 days of incubation, read-out: inhibition of colony formation (decrease in number of colonies) of MDA-MB-231 cells
From the text: Since compounds 1–3, 5–7, and 9 inhibited the viability of breast cancer cells MDA-MB-231, we then tested their ability to inhibit colony formation of MDA-MB-231 cells using the soft agar assay. The colony formation assay, also referred to as soft agar assay, allows for screening the therapeutic efficacy of compounds for anchorage-independent cell growth, which is one of the hallmark characteristics of cellular transformation and uncontrolled growth of cancer cells.
Figure 4 The effect of compounds 1–3, 5–7, and 9 on colony formation of human breast cancer cells MDA-MB-231 (2.4 × 10^4) that were exposed to PBS (control), Doxo (5, 10, and 20 µM), or the compounds under study (5, 10, and 20 µM) and placed on dishes with 0.3% Basal Medium Eagle (BME) agar containing 10% fetal bovine serum FBS, 2 mM L-glutamine, and 25 µg/mL gentamicin. After 14 days of incubation, the number of colonies was counted under a microscope using the ImageJ software program.
MDA-MB-231 cells (2.4 × 10^4/mL) were exposed to either DMSO (vehicle control) or Doxo (positive control) at concentrations of 5, 10, and 20 µM, and to 1–3, 5–7, and 9 at concentrations of 5, 10, 20 µM. Then, the cells were applied on dishes with 0.3% BME agar containing 10% FBS, 2 mM L-glutamine, and 25 µg/mL gentamicin. The cultures were maintained at 37°C in a 5% CO2 incubator for 14 days. The number and size of the colonies were estimated under a Motic microscope AE 20 and using the ImageJ software bundled with 64-bit Java 1.8.0_112 (NIH, Bethesda, Maryland, USA).

[2] = system: breast adenocarcinoma MDA-MB-231 cells; experiment: MTS cell viability assay, MDA-MB-231; type: cell-based, human; conditions: for IC50: Homo sapiens, MDA-MB-231, MTS assay, 24 h exposure, mean ± SD, read-out: Half Maximal Inhibitory Concentration (IC50) MDA-MB-231; for cytotoxic activity against MDA-MB-231 cells (in words): concentrations of up to 50 µM, MTS, 24 h
Description: (§1) In the present study, the cytotoxic activity of compounds 1–3, 5–7, and 9 against human normal embryonic kidney cells HEK293 and a panel of human cancer cells HT-29, SK-MEL-28, and MDA-MB-231 was measured by the MTS assay after 24 h of exposure. Different concentrations of doxorubicin (10, 50, and 100 µM), used as a positive control, and compounds 1–3, 5–7, and 9 (1, 10, and 50 µM) were studied.
(§2) The human embryonic kidney cells HEK293 (ATCC® CRL-1573™), the colorectal adenocarcinoma cell line HT-29 (ATCC® HTB-38), the melanoma SK-MEL-28 (ATCC® HTB-72™), and breast adenocarcinoma MDA-MB-231 (ATCC® HTB-26™) cell lines were obtained from the American Type Culture Collection (Manassas, VA, USA).
(§3) HT 29 cells were cultured in McCoy’s 5A medium; HEK293, SK-MEL-28, and MDA-MB-231 cell lines were maintained in the DMEM medium. The culture media were supplemented with 10% FBS and a 1% penicillin/streptomycin solution. The cell cultures were maintained at 37 °C in a humidified atmosphere containing 5% CO2.
(§4) Compounds 1–3, 5–7, and 9 were dissolved in a sterile dimethyl sulfoxide solution (DMSO) to prepare stock concentrations of 20 mM. Cells were exposed to serially diluted 1–3, 5–7, and 9 (1–100 µM) (with the culture medium used as a diluent) (the final concentration of DMSO was less than 0.5%).
(§5) Doxorubicin (Doxo) (Teva Pharmaceutical Industries, Ltd. (Israel)) was dissolved in sterile PBS to prepare stock concentrations of 10 mM. Cells were exposed to serially diluted Doxo (10–100 µM) (with the culture medium used as a diluent).
(§6) The effect of compounds 1–3, 5–7, and 9 on the viability of tested cell lines was evaluated by the MTS assay. HEK293 (1.0 × 10^4/200 µL), HT-29 (1.0 × 10^4/200 µL), SK-MEL-28 (0.8 × 10^4/200 µL), and MDA-MB-231 (1.0 × 10^4/200 µL) cells were seeded on a 96-well plate and incubated for 24 h at 37°C in a CO2 incubator. The cells were exposed to either DMSO (vehicle control) or Doxo at concentrations of […] (positive control) or 1–3, 5–7, and 9 at concentrations of 1, 10, and 50 µM for 24 h. The cells were subsequently incubated with 15 µL MTS reagent for 3 h, and the absorbance of each well was measured at 490/630 nm on a Power Wave XS microplate reader (BioTek, Winooski, VT, USA). The concentration at which a compound exerted half of its maximal inhibitory effect on cell viability (IC50) was calculated using the AAT-Bioquest® online calculator [27].

[3] = system: colorectal adenocarcinoma cell line HT-29; experiment: MTS cell viability assay, HT-29; type: cell-based; conditions: Homo sapiens, 24 h exposure, mean ± SD, read-out: Half Maximal Inhibitory Concentration (IC50) HT-29
Description: as §1, §2, §3, §4, §5, §6

[4] = system: human normal embryonic kidney cells HEK293; experiment: MTS cell viability assay, HEK293; type: cell-based; conditions: 24 h exposure, mean ± SD, read-out: Half Maximal Inhibitory Concentration (IC50) HEK293
Description: as §1, §2, §3, §4, §5, §6

melanoma SK-MEL-28 cells = experiment: MTS cell viability assay, SK-MEL-28; type: cell-based; conditions: Homo sapiens, 24 h exposure, mean ± SD, read-out: Half Maximal Inhibitory Concentration (IC50) SK-MEL-28
Description: as §1, §2, §3, §4, §5, §6

[5] = system: murine leukemic cells L1210; design: method as in doi:10.1021/jo00080a023, PMID 12192142; conditions: at a concentration of 2 μM; ref [21],[28]; cited from earlier work
[6] = system: a number of human cancer cell lines; design: method as in doi:10.1021/jo00080a023, PMID 12192142; conditions: at concentrations of 15–34 μM; ref [21],[28]; cited from earlier work

SMILES | IC50 [2] | IC50 [3] | IC50 (melanoma SK-MEL-28 cells) | inhibition at 20 µM [1] | cytotoxic activity against MDA-MB-231 cells (in words) [2] | IC50 [4] | cytotoxic activity against murine leukemic cells L1210 (in words) [5] | cytotoxic activity against a number of human cancer cell lines (in words) [6]
CCCCCCCCCCCCCC[C@@H](O)C(=O)N[C@@H](CO)[C@H](O)[C@H](O)CCCC/C=C\CCCCCCCCC(C)C [Compound 1, (2S,3S,4R,9Z)-2-[(2R)-2-hydroxyhexadecanoylamino]-19-methyl-9-icosen-1,3,4-triol] | > 50 µM | > 50 µM | > 50 µM | 46% | slight cytotoxic activity | > 50 µM |  | 
CCCCCCCCCCCCCC[C@@H](O)C(=O)N[C@@H](CO)[C@H](O)[C@H](O)CCCC/C=C\CCCCCCCCCCC(C)C [Compound 2, (2S,3S,4R,9Z)-2-[(2R)-2-hydroxyhexadecanoylamino]-21-methyl-9-docosen-1,3,4-triol] | 48.7 ± 2.4 µM | > 50 µM | > 50 µM | 68% |  | > 50 µM |  | 
CCCCCCCCCCCCCCC[C@@H](O)C(=O)N[C@@H](CO)[C@H](O)[C@H](O)CCCC/C=C\CCCCCCCCCCC(C)C [Compound 3, (2S,3S,4R,9Z)-2-[(2R)-2-hydroxyheptadecanoylamino]-21-methyl-9-docosen-1,3,4-triol] | 49.4 ± 1.6 µM | > 50 µM | > 50 µM | 48% |  | > 50 µM |  | 
CCCCCCC/C=C/C(C)=C/CC/C=C/[C@@H](O)[C@H](CO[C@@H]1O[C@H](CO)[C@@H](O)[C@H](O)[C@H]1O)NC(=O)[C@H](O)CCCCCCCCCCCCCCCCCCCC [Compound 5, ophidiacerebroside C] | 48.7 ± 1.8 µM | > 50 µM | > 50 µM | 54% |  | > 50 µM | strong cytotoxic activity | moderate cytotoxic activity

Second part, led by results:

IC50 [2] | IC50 [3] | IC50 (melanoma SK-MEL-28 cells) | SMILES | inhibition at 20 µM [1] | cytotoxic activity against MDA-MB-231 cells (in words) [2] | IC50 [4] | cytotoxic activity against murine leukemic cells L1210 (in words) [5] | cytotoxic activity against a number of human cancer cell lines (in words) [6]
40.5 ± 0.5 µM | > 50 µM | > 50 µM | CCCCCCC/C=C/C(C)=C/CC/C=C/[C@@H](O)[C@H](CO[C@@H]1O[C@H](CO)[C@@H](O)[C@H](O)[C@H]1O)NC(=O)[C@H](O)CCCCCCCCCCCCCCCCCCCCC [Compound 6, ophidiacerebroside D] | 68% |  | > 50 µM | strong cytotoxic activity | moderate cytotoxic activity
> 50 µM | > 50 µM | > 50 µM | CCCCCCCCCCCCCCCCCCCC[C@@H](O)C(=O)N[C@@H](CO[C@@H]1O[C@H](CO)[C@@H](O)[C@H](O)[C@H]1O)[C@H](O)[C@H](O)CCCCCCCCCC(C)CC (some centres unmarked) [Compound 7, CE-3-2] | 44% | slight cytotoxic activity | > 50 µM |  | 
> 50 µM | > 50 µM | > 50 µM | CCCCCCCCCCCCCCCCCCCCCC[C@@H](O)C(=O)N[C@@H](CO[C@@H]1O[C@H](CO)[C@@H](O)[C@H](O)[C@H]1O)[C@H](O)[C@H](O)CCCCCCCCCC(C)CC (stereo partly drawn) [Compound 9, (2S,3S,4R)-1-O-(β-D-glucopyranosyl)-2-[(2R)-2-hydroxytetracosanoylamino]-14-methylhexadecan-3,4-diol] | 50% | slight cytotoxic activity | > 50 µM |  | 
22.3 ± 0.2 µM | 21.8 ± 3.2 µM | 40 ± 5 µM | COc1cccc2c1C(=O)c1c(O)c3c(c(O)c1C2=O)C[C@@](O)(C(=O)CO)C[C@@H]3O[C@H]1C[C@H](N)[C@H](O)[C@H](C)O1 [Doxorubicin, reference compound] | 70% |  | 35.7 ± 1.2 µM |  | 
